Laboratory results taken from US20230172914A1, “BIOMARKER-BASED THERAPEUTIC COMPOSITION” (WELLMARKER BIO CO., LTD., priority 2019, published 2023).

How the values were obtained:
KM12C (RONΔ160) = assay: Cell death-inducing ability, trypan blue exclusion, KM12C; format: cell-based, human; conditions: 48 hours
Protocol: The cell death-inducing ability of Example 18 and Comparative Example 1 was measured in KM12C with RON mutant (Δ160), a cetuximab-resistant cell line, and Colo320HSR cell line, a cell line not expressing RON. The two colon cancer cell lines were seeded, respectively, onto 60-mm plates at 2×10^5 cells. Then, after 24 hours, while performing medium exchange, the cells were subjected to treatment with the sample compounds at respective concentrations (1 μM, 5 μM) for 48 hours. After 48 hours, the cells and cell suspensions were collected (1,500 rpm, 3 minutes), and live cells and dead cells were quantitated (n=2) through trypan blue (15250-061, Gibco) exclusion assay.

RON mutant (Δ155) = assay: Kinase assay for RON mutant Δ155 in transfected Colo320HSR (immunoprecipitation, Western blotting); format: cell-based; conditions: Colo320HSR transfected with RONΔ155, 2 hours of drug treatment
Protocol: As a way capable of replacing RON mutant, each of the mutants (Δ160, Δ155) was transfected into Colo320HSR, a RON-negative cell line, and the cell line was subjected to treatment with Example 18 or Comparative Example 1 at respective concentrations. Then, it was checked, through immunoprecipitation and Western blotting, whether expression of active RON decreases. The detailed method is as follows. The RON-negative Colo320SHR colon cancer cell line was transfected with 12 ug of each of RONΔ160 and RON Δ155 using lipofectamine 2000 (Invitrogen, cat #11668-019). For the same transfection efficiency, after 24 hours, the transformed strains were dispensed into a 60-mm dish. 48 hours after transfection, treatment with drugs of Comparative Example 1 and Example 18 was performed, respectively, in a dose-dependent manner. After 2 hours of drug treatment, the cells were collected and washed with PBS. Then, the washed cells were lysed with RIPA Lysis Buffer (T&I, cat #BRI-9001).
Protein concentrations were quantified using the Bradford (BioRad, cat #5000205) method. […]
Electrophoresis was performed using SDS-PAGE, and then proteins were transferred to PVDF membrane. […] The developed film was analyzed with densitometry using Image-J, and then IC50 was calculated using Graphpad Prism (GraphPad Software, Inc.).

[1] = system: colon cancer patient-derived cell line expressing active RON; assay: Cell death in colon cancer patient-derived cell line expressing active RON (immunofluorescence); format: cell-based, human; conditions: 5 ug, 48 hours, KRAS normal
Protocol: The following condition and methods were used to perform the present experiment. […] Then, the respective cell lines were seeded at 5×10^5 cells onto 24-well plates, in which one sterile 12 mmΦ microscope cover glass was placed on each well, and incubated. The respective colon cancer patient-derived cell lines under incubation were subjected to treatment with Example 18 and Comparative Example 1, respectively, at 5 ug, and then incubated for 48 hours. Each incubated plate was washed twice with PBS, and then fixed with 100% Me-OH at room temperature for 5 minutes. The Me-OH was removed, and washing with PBS was performed three times for 5 minutes each. Then, 100 ul of 0.1% Triton X-100 (in PBS) was dispensed thereinto and permeabilization was allowed to occur for 5 minutes. Washing with PBS was performed three times for 5 minutes each, and then PBS was added thereto to prevent drying. Parafilm was attached to the 24-well plate cover, and then PBS-T (PBS+0.1% Tween 20) containing 3% BSA was dropped by 20 μl onto the parafilm. […] Then, washing with PBS-T (PBS+0.1% Tween 20) was performed twice, and a fluorescence microscope was used to identify the staining. […] Then, the cover glass was placed thereon, and a fluorescence microscope was used to take a fluorescence image.

CCOc1ccn(-c2ccc(F)cc2)c(=O)c1C(=O)Nc1ccc(Oc2ccnc3cc(-c4ccc(CN5CCOCC5)cn4)sc23)c(F)c1.Cl [Example 18, 4-ethoxy-N-[3-fluoro-4-({2-[5-(morpholinomethyl)pyridin-2-yl]thieno[3,2-b]pyridine-7-yl}oxy)phenyl]-1-(4-fluorophenyl)-2-oxo-1,2-dihydropyridine-3-carboxamide hydrochloride]
Cell death, KM12C (RONΔ160) (KM12C (RONΔ160); 1 μM): 29.0
Cell death, KM12C (RONΔ160) (KM12C (RONΔ160); 5 μM): 35.2
inhibition of RON activity (degree of active RON) (RON mutant (Δ155)): high inhibition efficacy as compared with Comparative Example 1
cell death-inducing efficacy (cleaved caspase 3 immunofluorescence) [1]: exhibits cell death-inducing efficacy
